Assay results: patent US10913736B2 (UNIVERSITY OF WASHINGTON, priority 2014, dated 2021)
Several values for one entry are separate records, joined by “and”; a condition that tells them apart may be missing. Equal entries are not always repeated. Where two headings read alike, the source gives them in different places.

How the values were obtained:
MetRS (T. brucei) = MetRS (T. brucei) (Trypanosoma brucei brucei, UniProt Q38C91); test: MetRS (T. brucei) ATP depletion assay using Kinase-Glo; format: biochemical
T. brucei = test: Growth inhibition assay of T. brucei cell cultures (Alamar Blue, 48 h); format: cell-based
[1] = Trypanosoma brucei; read-out: B) T. brucei EC50

MetRS (T. brucei), sequence (Q38C91 entry or part of it): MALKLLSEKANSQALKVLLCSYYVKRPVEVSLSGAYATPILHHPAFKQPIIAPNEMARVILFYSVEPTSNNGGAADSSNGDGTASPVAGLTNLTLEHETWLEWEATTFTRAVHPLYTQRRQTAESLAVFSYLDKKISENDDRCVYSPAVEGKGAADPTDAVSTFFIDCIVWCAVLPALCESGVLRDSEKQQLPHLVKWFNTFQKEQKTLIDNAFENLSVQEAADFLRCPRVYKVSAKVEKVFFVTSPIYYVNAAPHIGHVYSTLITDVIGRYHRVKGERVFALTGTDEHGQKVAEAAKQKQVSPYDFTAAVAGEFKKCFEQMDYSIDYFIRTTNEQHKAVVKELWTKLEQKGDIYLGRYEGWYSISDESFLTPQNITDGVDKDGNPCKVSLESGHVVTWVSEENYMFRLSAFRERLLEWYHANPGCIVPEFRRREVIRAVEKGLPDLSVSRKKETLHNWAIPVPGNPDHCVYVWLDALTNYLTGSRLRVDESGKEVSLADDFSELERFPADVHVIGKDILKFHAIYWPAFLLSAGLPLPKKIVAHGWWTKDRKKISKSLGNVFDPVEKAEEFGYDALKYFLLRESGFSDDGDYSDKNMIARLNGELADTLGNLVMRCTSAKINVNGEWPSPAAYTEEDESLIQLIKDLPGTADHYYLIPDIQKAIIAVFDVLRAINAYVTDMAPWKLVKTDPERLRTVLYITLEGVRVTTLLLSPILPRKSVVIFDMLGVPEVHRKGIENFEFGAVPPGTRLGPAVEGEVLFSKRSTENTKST

| Structure (SMILES) | IC50 (MetRS (T. brucei)) | EC50 (T. brucei; [1]) | EC50 (T. brucei; read-out: B) T. brucei EC50) |
| --- | --- | --- | --- |
| CC(Cc1nc2cc(Cl)c(Cl)cc2[nH]1)NCc1cc(Cl)cc(Cl)c1 (centres unmarked) [Compound 1822, [1-(5,6-dichloro-1H-1,3-benzodiazol-2-yl)propan-2-yl][(3,5-dichlorophenyl)methyl]amine] | 1490 nM | 3570 nM |  |
| CC(C)[C@@H](Cc1nc2ccc(Cl)cc2[nH]1)NCc1cc(Cl)cc(Cl)c1 [Compound 1828, [(2R)-1-(6-chloro-1H-1,3-benzodiazol-2-yl)-3-methylbutan-2-yl][(3,5-dichlorophenyl)methyl]amine] | > 10000 nM | 7410 nM |  |
| CC(=O)N(Cc1cc(Cl)cc(Cl)c1)N1CCCC(c2nc3cc(F)ccc3[nH]2)C1 (centres unmarked) [Compound 1833, N-[(3,5-dichlorophenyl)methyl]-N-[3-(5-fluoro-1H-1,3-benzodiazol-2-yl)piperidin-1-yl]acetamide] | > 10000 nM | > 20000 nM |  |
| O=C(NCc1nc2ccccc2[nH]1)N[C@H](CO)Cc1ccc(Cl)cc1Cl [Compound 1935, 1-((1H-benzo[d]imidazol-2-yl)methyl)-3-((S)-3-(2,4-dichlorophenyl)-1-hydroxypropan-2-yl)urea] | > 10000 nM | 9360 nM |  |
| N[C@H](CC(=O)NCc1nc2ccccc2[nH]1)Cc1ccc(Cl)cc1Cl [Compound 1726, (3S)-3-amino-N-(1H-1,3-benzodiazol-2-ylmethyl)-4-(2,4-dichlorophenyl)butanamide] | 2380 nM | 8020 nM |  |
| Fc1ccc2[nH]c(C3CCCC(NCc4cc(Cl)cc(Cl)c4)C3)nc2c1 (centres unmarked) [Compound 1839, N-(3,5-dichlorobenzyl)-3-(5-fluoro-1H-benzo[d]imidazol-2-yl) cyclohexanamine] | 3680 nM | 2320 nM |  |
| COC(=O)[C@H](Cc1ccc(Cl)cc1Cl)NC(=O)NCc1nc2ccccc2[nH]1 [Compound 1755, methyl (2S)-2-{[(1H-1,3-benzodiazol-2-ylmethyl)carbamoyl]amino}-3-(2,4-dichlorophenyl)propanoate] | 1390 nM | > 10000 nM |  |
| Cc1ccc2nc(CC(C)NCc3cc(Cl)cc(Cl)c3)[nH]c2c1 (centres unmarked) [Compound 1820, [(3,5-dichlorophenyl)methyl][1-(6-methyl-1H-1,3-benzodiazol-2-yl)propan-2-yl]amine] | 290 nM | 3140 nM |  |
| NC(=O)N(CCCNc1nc2ccc(F)nc2[nH]1)Cc1cc(Cl)cc(Cl)c1 [Compound 1974, 1-(3,5-dichlorobenzyl)-1-(3-(5-fluoro-3H-imidazo[4,5-b]pyridin-2-ylamino)propyl)urea] | 7 nM |  |  |
| O=C(Nc1cc(Cl)cc(Cl)c1)N1CCCC(c2nc3cc(Cl)ccc3[nH]2)C1 (centres unmarked) [Compound 1759, 3-(5-chloro-1H-benzo[d]imidazol-2-yl)-N-(3,5-dichlorophenyl) piperidine-1-carboxamide] | > 10000 nM | > 10000 nM |  |
| Clc1cc(Cl)cc(CNCCc2nc3ccc(Cl)nc3[nH]2)c1 [Compound 1780, [2-(5-chloro-3H-imidazo[4,5-b]pyridin-2-yl)-ethyl]-(3,5-dichloro-benzyl)-amine] | 67 nM and 36 nM | 1160 nM | 1060 nM |
| O=C(Cc1cc(Cl)cc(Cl)c1)N1CCCC(c2nc3c(Cl)cccc3[nH]2)C1 (centres unmarked) [Compound 1733, 1-(3-(4-chloro-1H-benzo[d]imidazol-2-yl)piperidin-1-yl)-2-(3,5-dichlorophenyl) ethanone] | 926 nM | 8810 nM |  |
| O=C(CCNc1ccc(Cl)cc1Cl)NCc1nc2ccccc2[nH]1 [Compound 1763, N-(1H-Benzoimidazol-2-ylmethyl)-3-(2,4-dichloro-phenylamino)-propionamide] | 168 nM | 12700 nM |  |
| O=C1N[C@@H](Cc2ccc(Cl)cc2Cl)C(O)N1Cc1nc2ccccc2[nH]1 (stereo partly drawn) [Compound 1934, (4S)-1-((1H-benzo[d]imidazol-2-yl)methyl)-4-(2,4-dichlorobenzyl)-5-hydroxyimidazolidin-2-one] | 118 nM | 2000 nM |  |
| CC[C@@H](Cc1nc2ccc(Cl)cc2[nH]1)NCc1cc(Cl)cc(Cl)c1 [Compound 1827, [(2S)-1-(6-chloro-1H-1,3-benzodiazol-2-yl)butan-2-yl][(3,5-dichlorophenyl)methyl]amine] | 390 nM | 5020 nM |  |
| O=C(NCc1nc2ccc(F)cc2[nH]1)OCCc1ccc(Cl)cc1Cl [Compound 1741, (6-Fluoro-1H-benzoimidazol-2-ylmethyl)-carbamic acid 2-(2,4-dichloro-phenyl)-ethyl ester] | 132 nM | 4220 nM |  |
| Clc1cc(Cl)cc(CNc2cccc(-c3nc4ccc(Cl)cc4[nH]3)c2)c1 [Compound 1952, 3-(6-chloro-1H-1,3-benzodiazol-2-yl)-N-[(3,5-dichlorophenyl)methyl]aniline] | 2280 nM and 1740 nM | 187 nM | 367 nM |
| COc1c(Br)cc(Br)cc1CN[C@H]1CCCN(c2nc3nc(Cl)ccc3[nH]2)C1 [Compound 1909, (S)-1-(5-chloro-1H-imidazo[4,5-b]pyridin-2-yl)-N-(3,5-dibromo-2-methoxybenzyl)piperidin-3-amine] | 20 nM | 334 nM |  |
| Clc1cc(Cl)cc(CO[C@H]2CCCN(c3nc4nc(Cl)c(Br)cc4[nH]3)C2)c1 [Compound 1904, (S)-6-bromo-5-chloro-2-(3-((3,5-dichlorobenzyl)oxy)piperidin-1-yl)-1H-imidazo[4,5-b]pyridine] | > 10000 nM | > 20000 nM |  |
| CC(Cc1nc2cc3ccccc3cc2[nH]1)NCc1cc(Cl)cc(Cl)c1 (centres unmarked) [Compound 1826, [(3,5-dichlorophenyl)methyl](1-{1H-naphtho[2,3-d]imidazol-2-yl}propan-2-yl)amine] | 454 nM | 7940 nM |  |
| Clc1cc(Cl)cc(CN2CCN(c3nc4nc(Cl)ccc4[nH]3)CC2)c1 [Compound 1866, 5-chloro-2-(4-(3,5-dichlorobenzyl)piperazin-1-yl)-1H-imidazo[4,5-b]pyridine] | > 10000 nM | > 20000 nM |  |
| O=C(CCNCc1cc(Cl)cc(Cl)c1)Nc1nc2ncccc2[nH]1 [Compound 1576, 3-(3,5-dichlorobenzylamino)-N-(3H-imidazo[4,5-b]pyridin-2-yl)propanamide] | 109 nM | 403 nM |  |
| O=C(N[C@H]1CCCN(c2nc3nc(Cl)ccc3[nH]2)C1)c1cc(Cl)cc(Cl)c1 [Compound 1889] |  | > 20000 nM |  |
| O=C(Nc1cc(Cl)cc(Cl)c1)[C@H]1CCCN(c2nc3nc(Cl)ccc3[nH]2)C1 [Compound 1888, (S)-1-(5-chloro-1H-imidazo[4,5-b]pyridin-2-yl)-N-(3,5-dichlorophenyl)piperidine-3-carboxamide] |  | > 20000 nM |  |
| O=C(CO)N(CCCNc1nc2ccc(F)nc2[nH]1)Cc1cc(Cl)cc(Cl)c1 [Compound 1973, N-(3,5-dichlorobenzyl)-N-(3-(5-fluoro-3H-imidazo[4,5-b]pyridin-2-ylamino)propyl)-2-hydroxyacetamide] | 11 nM |  |  |
| Clc1cc(Cl)c2ccn(CCCNc3nc4ccc(Cl)nc4[nH]3)c2c1 [Compound 1996, 5-chloro-N-[3-(4,6-dichloro-1H-indol-1-yl)propyl]-3H-imidazo[4,5-b]pyridin-2-amine] |  | 5300 nM |  |
| Clc1cc(Cl)cc(CCN2CCCC(c3nc4nc(Cl)ccc4[nH]3)C2)c1 (centres unmarked) [Compound 1812, 5-chloro-2-(1-(3,5-dichlorophenethyl)piperidin-3-yl)-1H-imidazo[4,5-b]pyridine] |  | 3760 nM |  |
